Test results published in US7786081B2, “Peptide composition” (Pepsyn Ltd., priority 1993, dated 2010).

Columns and labels:
[1] = known agent, stated drawback; cited from earlier work
[2] = system: Human keratinocytes (HatKat); assay: Growth of keratinocytes (cell count, Coulter counter); assay type: cell-based
Method: Human keratinocytes (HatKat) were grown in keratinocyte growth medium (TCS Cellworks Ltd.) until 20% confluence. Then, in the same medium, the keratinocytes were grown for three days with 0.5% foetal calf serum (FCS), at which point the cells were counted in a Coulter® counter. The cell numbers obtained are set out in Table 3 below.

| Compound | erythema at the site of application [1] | increase in the growth of keratinocytes ([2]; 10 ng/ml EGF vs medium with 0.5% FCS) | Number of cells ([2]; Medium with 0.5% FCS + 10 ng/ml EGF, three days, medium alone 23,777) |
| --- | --- | --- | --- |
| CC1=C(/C=C/C(C)=C/C=C/C(C)=C/C(=O)O)C(C)(C)CCC1 [all-trans retinoic acid] | produces marked erythema | – | – |
| EGF: epidermal growth factor, comparator in the keratinocyte growth test (NSDSECPLSHDGYCLHDGVCMYIEALDKYACNCVVGYIGERCQYRDLKWWELR; UniProt P01133 971-1023, looked up) | – | relatively modest increase | 29,356 |
